Like-named read-outs stand apart in the source and are kept apart here.
Target: human RORgammaT-Ligand Binding Domain (LBD) (Homo sapiens (Human), UniProt P51449)
Assay: RORγ-Ligand Binding Domain TR-FRET assay (co-activator peptide SRC1_2 recruitment)
Type: biochemical
[1] = HIS-tagged RORγ-LBD 3 nM, biotinylated SRC1 LXXLL peptide 100 nM, incubated overnight at 4° C., 665 nm/615 nm signal quotient

Sequence of human RORgammaT-Ligand Binding Domain (LBD) (P51449 269-508): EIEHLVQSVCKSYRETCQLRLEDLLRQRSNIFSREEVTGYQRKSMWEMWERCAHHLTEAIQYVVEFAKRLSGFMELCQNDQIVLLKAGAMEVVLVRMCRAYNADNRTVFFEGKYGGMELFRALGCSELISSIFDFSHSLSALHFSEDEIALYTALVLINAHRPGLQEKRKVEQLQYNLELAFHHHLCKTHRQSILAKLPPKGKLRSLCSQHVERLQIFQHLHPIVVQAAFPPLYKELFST

| SMILES | IC50 [µM] | IC50 [1] [µM] |
| --- | --- | --- |
| N#Cc1ccc(Cl)cc1Cn1nc(-c2ccc(C(=O)O)cc2F)c2ncccc21 [Example 1J, 4-[1-(5-chloro-2-cyanobenzyl)-1H-pyrazolo[4,3-b]pyridin-3-yl]-3-fluorobenzoic acid] | > 10 | – |
| CC(c1ccccc1C(F)(F)F)n1nc(-c2ccc(C(=O)O)cc2F)c2ncccc21 (stereo not shown) [Example 1K, 3-fluoro-4-(1-{1-[2-(trifluoromethyl)phenyl]ethyl}-1H-pyrazolo[4,3-b]pyridin-3-yl)benzoic acid] | – | > 10 |
| O=C(O)c1ccc(-c2nn(Cc3c(F)ccc(F)c3F)c3cccnc23)c(F)c1 [Example 1N, 3-fluoro-4-[1-(2,3,6-trifluorobenzyl)-1H-pyrazolo[4,3-b]pyridin-3-yl]benzoic acid] | – | > 10 |
| O=C(O)c1ccc(-c2nn(Cc3c(F)cccc3F)c3cccnc23)c(F)c1 [Example 1P, 4-[1-(2,6-difluorobenzyl)-1H-pyrazolo[4,3-b]pyridin-3-yl]-3-fluorobenzoic acid] | – | > 10 |
